Test systems include SK-MEL-5 melanoma; K-562 leukemia; HCT-15 colon; UACC-62 melanoma; UACC-257 melanoma; U251 CNS; SF-268 CNS; HS 578T breast; NCI-H522 lung; CAKI-1 renal.
Common to all, as to experiment: NCI tumour cell line growth inhibition, 48 h

These results are taken from PubChem BioAssay (NCI).

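Five compound concentrations were applied to cells in 96-well plates for 48 hours; endpoints were derived by simple linear interpolation of the resulting dose-response curve. GI50 marks 50% less growth. TGI is the concentration that stops growth completely.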

For `O=C(/C=C/c1ccc(Cl)cc1)c1ccccc(=O)c1O`, the TGI is 4.93 µM in the experiment with SK-MEL-5 melanoma; 12.1 µM with K-562 leukemia; 6.08 µM with HCT-15 colon; 6 µM in the experiment with UACC-62 melanoma; 14.6 µM in the experiment with UACC-257 melanoma; greater than 100 µM in the experiment with U251 CNS. In addition, the TGI in the experiment on SF-268 CNS amounted to 36.2 µM; in the experiment on HS 578T breast, 31.1 µM; in the experiment with NCI-H522 lung, 50.9 µM; in the experiment with CAKI-1 renal it was 2.79 µM.

For `COC(=O)c1ccc2c(c1)C(=O)c1c-2n(CCCCl)c(=O)c2cc([N+](=O)[O-])ccc12`, the GI50 is 85.7 µM with SK-MEL-5 melanoma; 59 µM in the experiment on K-562 leukemia; greater than 100 µM in the experiment on HCT-15 colon; 27.5 µM in the experiment with UACC-62 melanoma; greater than 100 µM in the experiment on UACC-257 melanoma; 53.1 µM in the experiment on U251 CNS. Besides, the GI50 with SF-268 CNS was 42.2 µM; in the experiment on HS 578T breast, greater than 100 µM; in the experiment with NCI-H522 lung it was 51 µM; with CAKI-1 renal, 65.6 µM. The TGI in the experiment with SK-MEL-5 melanoma, in the experiment with K-562 leukemia, with HCT-15 colon, in the experiment with UACC-62 melanoma, with UACC-257 melanoma and in the experiment with U251 CNS was greater than 100 µM throughout. The TGI in the experiment with SF-268 CNS, in the experiment on HS 578T breast, in the experiment with NCI-H522 lung and in the experiment on CAKI-1 renal was greater than 100 µM throughout.

On to `COc1cccc(/C=C/C(=O)c2ccc(SC)cc2)c1OC`, for which the GI50 in the experiment on SK-MEL-5 melanoma was 16.4 µM; in the experiment with K-562 leukemia, 4.97 µM; in the experiment with HCT-15 colon it was 10.4 µM; with UACC-62 melanoma it was 10.8 µM; with UACC-257 melanoma, 15.7 µM; with U251 CNS it was 10.4 µM. The GI50 in the experiment with SF-268 CNS was 20.2 µM; in the experiment with HS 578T breast it was 25.3 µM; in the experiment on NCI-H522 lung, 19.2 µM; in the experiment on CAKI-1 renal it was 18.4 µM. Also, the TGI in the experiment with SK-MEL-5 melanoma came out at 30.3 µM; in the experiment with K-562 leukemia, 64.2 µM; in the experiment on HCT-15 colon, 30.3 µM; in the experiment on UACC-62 melanoma it was 23.8 µM; with UACC-257 melanoma, 29.3 µM; in the experiment on U251 CNS, 24 µM. Besides, the TGI stood at 42.3 µM in the experiment with SF-268 CNS, 56.6 µM in the experiment on HS 578T breast, 38.9 µM in the experiment on NCI-H522 lung and 35.9 µM with CAKI-1 renal.

Take `C[C@H]1/C(=C/C(=O)OCCN(C)C)CC[C@H]2[C@H]1C(=O)C[C@H]1C(C)(C)[C@@H](O)CC[C@]21C`: the TGI in the experiment on SK-MEL-5 melanoma, with K-562 leukemia, in the experiment on HCT-15 colon, in the experiment with UACC-62 melanoma, in the experiment with UACC-257 melanoma and in the experiment on U251 CNS was greater than 100 µM in each case. Further, the TGI with SF-268 CNS, in the experiment on HS 578T breast, in the experiment on NCI-H522 lung and in the experiment on CAKI-1 renal was greater than 100 µM throughout. Also, the GI50 in the experiment on K-562 leukemia is greater than 100 µM.

Turning to `CN(C)CCCN(CCC1CCCCC1)CCC1CCCCC1`, the GI50 with SK-MEL-5 melanoma is 0.545 µM; with K-562 leukemia it was 0.591 µM; in the experiment on HCT-15 colon, 1.46 µM; with UACC-62 melanoma, 1.79 µM; with UACC-257 melanoma, 0.77 µM; with U251 CNS it was 1.67 µM. Further, the GI50 in the experiment with SF-268 CNS is 5.5 µM; with HS 578T breast it was 1.9 µM; with NCI-H522 lung, 3.1 µM; in the experiment on CAKI-1 renal, 2.65 µM. Also, the TGI in the experiment with SK-MEL-5 melanoma was found to be 2.14 µM; in the experiment with HCT-15 colon it was 3.59 µM; in the experiment on UACC-62 melanoma, 3.35 µM; in the experiment with UACC-257 melanoma it was 2.82 µM; in the experiment with U251 CNS, 3.81 µM; in the experiment with SF-268 CNS it was 18 µM. Further, the results for the TGI with HS 578T breast, with NCI-H522 lung and in the experiment on CAKI-1 renal were 4.76 µM, 8.3 µM and 8.06 µM, respectively.

As to `COc1cc2c3cc1Oc1c(OC)c(OC)cc4c1C(=NCC4)Cc1ccc(cc1)Oc1cc(ccc1O)C[C@H]3N(C)CC2`, the TGI in the experiment on SK-MEL-5 melanoma is 24.6 µM; in the experiment with K-562 leukemia, 74.1 µM; with HCT-15 colon, 25.9 µM; in the experiment with UACC-62 melanoma, 30.3 µM; in the experiment with UACC-257 melanoma, 29.6 µM; in the experiment with U251 CNS, 45.2 µM. For the same compound, the TGI was greater than 100 µM in the experiment on SF-268 CNS, 63.7 µM in the experiment with HS 578T breast, 25.3 µM in the experiment with NCI-H522 lung and 49.1 µM in the experiment on CAKI-1 renal.

As for `CCCCC(CCCCCC(CCCC)NCc1ccc2c(c1)OCO2)NCc1ccc2c(c1)OCO2` (centres undefined), the GI50 with SK-MEL-5 melanoma was 0.758 µM; with K-562 leukemia, 0.186 µM; in the experiment with HCT-15 colon, 0.326 µM; in the experiment with UACC-62 melanoma, 1.57 µM; in the experiment on UACC-257 melanoma, 0.199 µM; in the experiment with U251 CNS, 0.207 µM. Besides, the GI50 was 0.905 µM with SF-268 CNS, 0.977 µM with HS 578T breast, 0.604 µM in the experiment with NCI-H522 lung and 0.669 µM in the experiment on CAKI-1 renal. Besides, the TGI in the experiment with SK-MEL-5 melanoma came out at 2 µM; with K-562 leukemia, 0.46 µM; with HCT-15 colon, 1.09 µM; with UACC-62 melanoma, 3.12 µM; with UACC-257 melanoma, 0.378 µM; in the experiment with U251 CNS, 0.438 µM. The TGI in the experiment with SF-268 CNS stood at 2.22 µM; in the experiment on HS 578T breast, 2.92 µM; in the experiment on NCI-H522 lung, 1.27 µM; in the experiment on CAKI-1 renal it was 1.76 µM.

Regarding `O=C(CCl)NCCNc1nccc(Nc2ccc(S(=O)(=O)Nc3ccccn3)cc2)n1`, the GI50 is 1.53 µM in the experiment on SK-MEL-5 melanoma; 2.57 µM with K-562 leukemia; 1.62 µM in the experiment with HCT-15 colon; 1.74 µM in the experiment on UACC-62 melanoma; 2.54 µM with UACC-257 melanoma; 1.21 µM with U251 CNS. Also, the GI50 in the experiment on SF-268 CNS is 2.63 µM; with HS 578T breast it was 5.23 µM; in the experiment with NCI-H522 lung it was 1.61 µM; in the experiment with CAKI-1 renal it was 2.31 µM. Also, the TGI in the experiment with SK-MEL-5 melanoma amounted to 2.94 µM; with K-562 leukemia, 17 µM; in the experiment on HCT-15 colon it was 4.38 µM; with UACC-62 melanoma, 4.24 µM; in the experiment on UACC-257 melanoma, 14.4 µM; in the experiment on U251 CNS, 3.43 µM. The TGI in the experiment on SF-268 CNS was 12.9 µM; in the experiment with HS 578T breast, greater than 100 µM; in the experiment with NCI-H522 lung it was 3.98 µM; with CAKI-1 renal, 10.4 µM.

For `Cn1c(=O)c(Oc2ccc(F)cc2F)cc2cnc(NC(C)(C)CO)nc21`, the GI50 in the experiment with SK-MEL-5 melanoma, with K-562 leukemia, with HCT-15 colon, in the experiment with UACC-62 melanoma, in the experiment with UACC-257 melanoma and in the experiment with U251 CNS was greater than 25 µM each time. Further, the GI50 with SF-268 CNS, in the experiment on HS 578T breast, with NCI-H522 lung and with CAKI-1 renal was greater than 25 µM in each case. In addition, the TGI in the experiment on SK-MEL-5 melanoma, in the experiment with K-562 leukemia, in the experiment with HCT-15 colon, with UACC-62 melanoma, in the experiment on UACC-257 melanoma and in the experiment on U251 CNS was greater than 25 µM throughout. For the same compound, the TGI in the experiment with SF-268 CNS, in the experiment with HS 578T breast, with NCI-H522 lung and with CAKI-1 renal was greater than 25 µM each time.

On to `BrC(Br)=C1C(=C(Br)Br)C(Br)C1Br` (centres undefined), for which the TGI with SK-MEL-5 melanoma turned out to be 2.04 µM; with K-562 leukemia, 1.19 µM; with HCT-15 colon it was 1.73 µM; in the experiment on UACC-62 melanoma, 1.91 µM; in the experiment with UACC-257 melanoma it was 5.3 µM; in the experiment with U251 CNS, 2.69 µM. The TGI is 1.51 µM in the experiment on SF-268 CNS, 23.3 µM with HS 578T breast, 0.299 µM with NCI-H522 lung and 0.898 µM in the experiment on CAKI-1 renal.

Consider `COc1cc(Oc2c(C)c(Cl)c(OC)c(Cl)c2OC)c2c(c1Cl)COC2=O`, for which the TGI with SK-MEL-5 melanoma is 49.2 µM; with K-562 leukemia, 8.51 µM; with HCT-15 colon, greater than 100 µM; in the experiment on UACC-62 melanoma it was greater than 100 µM; with UACC-257 melanoma, greater than 100 µM; with U251 CNS, greater than 100 µM. The TGI in the experiment on SF-268 CNS is greater than 100 µM; in the experiment with HS 578T breast it was greater than 100 µM; in the experiment with NCI-H522 lung, 33.7 µM; with CAKI-1 renal, greater than 100 µM.

`O=C1/C(=C/c2ccccc2)CN(C(=O)C(Cl)Cl)C/C1=C\c1ccccc1`: the GI50 in the experiment on SK-MEL-5 melanoma is 0.698 µM; in the experiment on K-562 leukemia, 0.134 µM; in the experiment with HCT-15 colon, 0.248 µM; with UACC-62 melanoma, 0.702 µM; in the experiment with UACC-257 melanoma, 1.42 µM; in the experiment with U251 CNS it was 0.325 µM. Besides, the GI50 is 1.75 µM in the experiment with SF-268 CNS, 1.32 µM with HS 578T breast, 1.08 µM in the experiment on NCI-H522 lung and 1.42 µM in the experiment on CAKI-1 renal. Besides, the TGI in the experiment on SK-MEL-5 melanoma turned out to be 1.94 µM; with HCT-15 colon it was 0.77 µM; in the experiment on UACC-62 melanoma, 2 µM; in the experiment on UACC-257 melanoma it was 3.13 µM; in the experiment with U251 CNS it was 1.24 µM; in the experiment on SF-268 CNS, 5.2 µM. Further, the TGI amounted to 6.86 µM in the experiment on HS 578T breast, 2.69 µM in the experiment on NCI-H522 lung and 2.95 µM in the experiment with CAKI-1 renal.

Turning to `CSC(=NC#N)S/C=C/C(=O)c1ccccc1`, the GI50 in the experiment on SK-MEL-5 melanoma was 45.9 µM; with K-562 leukemia, 32.7 µM; in the experiment with HCT-15 colon it was 34.8 µM; in the experiment with UACC-62 melanoma, 33.4 µM; with UACC-257 melanoma, 45.4 µM; with U251 CNS, 40.3 µM. The GI50 with SF-268 CNS was 43.8 µM; in the experiment with HS 578T breast, 39 µM; in the experiment with NCI-H522 lung, 19.8 µM; in the experiment on CAKI-1 renal, 16.6 µM. The TGI in the experiment on SK-MEL-5 melanoma, in the experiment with K-562 leukemia, in the experiment on HCT-15 colon, in the experiment on UACC-62 melanoma, with UACC-257 melanoma and in the experiment with U251 CNS was greater than 100 µM in each case. In addition, the TGI in the experiment with SF-268 CNS is greater than 100 µM; in the experiment on HS 578T breast, 96.8 µM; with NCI-H522 lung it was 47.8 µM; in the experiment with CAKI-1 renal, 37.2 µM.
